Measurements from ChEMBL document CHEMBL1144315, “Three-dimensional quantitative structure (3-D QSAR) activity relationship studies on imidazolyl and N-pyrrolyl heptenoates as 3-hydroxy-3-methylglutaryl-CoA reductase (HMGR) inhibitors by comparative molecular similarity indices analysis (CoMSIA)” (Bioorg Med Chem Lett, 2005).

Target: T1, 3-hydroxy-3-methylglutaryl-coenzyme A reductase (Homo sapiens, UniProt P04035)
T1 sequence (P04035 whole entry): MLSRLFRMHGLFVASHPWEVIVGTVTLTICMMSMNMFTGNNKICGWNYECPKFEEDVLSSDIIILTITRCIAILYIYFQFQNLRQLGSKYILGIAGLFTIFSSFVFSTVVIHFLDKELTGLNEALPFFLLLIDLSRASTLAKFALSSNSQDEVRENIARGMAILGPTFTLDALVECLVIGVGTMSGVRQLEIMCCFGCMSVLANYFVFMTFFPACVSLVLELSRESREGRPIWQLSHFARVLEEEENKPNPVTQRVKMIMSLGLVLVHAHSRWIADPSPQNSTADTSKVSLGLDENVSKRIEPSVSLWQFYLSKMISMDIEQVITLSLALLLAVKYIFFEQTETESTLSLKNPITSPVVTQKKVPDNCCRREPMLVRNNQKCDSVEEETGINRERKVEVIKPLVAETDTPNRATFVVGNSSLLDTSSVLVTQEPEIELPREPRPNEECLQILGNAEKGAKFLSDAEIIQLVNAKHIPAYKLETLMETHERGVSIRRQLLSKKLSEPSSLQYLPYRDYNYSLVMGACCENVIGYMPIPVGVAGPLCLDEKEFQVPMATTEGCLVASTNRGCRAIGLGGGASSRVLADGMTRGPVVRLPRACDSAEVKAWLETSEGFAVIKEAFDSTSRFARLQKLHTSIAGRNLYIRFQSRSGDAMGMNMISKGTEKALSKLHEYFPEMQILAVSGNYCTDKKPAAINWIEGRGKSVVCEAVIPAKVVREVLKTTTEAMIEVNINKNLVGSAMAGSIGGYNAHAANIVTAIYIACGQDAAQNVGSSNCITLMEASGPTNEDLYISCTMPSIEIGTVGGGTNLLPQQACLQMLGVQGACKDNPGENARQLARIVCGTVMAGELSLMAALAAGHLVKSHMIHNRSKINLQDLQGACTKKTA
Test: Inhibitory concentration against 3-hydroxy-3-methylglutaryl-CoA reductase

`Cc1cc(-c2c(-c3ccc(F)cc3)nc(C(C)C)n2/C=C/[C@@H](O)C[C@@H](O)CC(=O)O)cc(C)c1F` was tested. Which IC50 did it give?
The IC50 was 7.52 nM.

How did the IC50 turn out when `CC(C)c1cc(-c2ccccc2)c(-c2ccc(F)cc2)n1/C=C/[C@@H](O)C[C@@H](O)CC(=O)O` was run?
Its IC50 is 8.7 nM.

How did the IC50 turn out when `CC(C)c1cc(-c2ccncc2)c(-c2ccc(F)cc2)n1/C=C/[C@@H](O)C[C@@H](O)CC(=O)O` was run?
Its IC50 is 8.3 nM.

Which IC50 does the source give for `CC(C)(C)c1nc(-c2ccc(F)cc2)c(-c2ccc(F)cc2)n1/C=C/[C@@H](O)C[C@@H](O)CC(=O)O` here?
Its IC50 is 8.15 nM.

With `COCc1c(C(C)C)nc(C(C)C)c(/C=C/[C@@H](O)C[C@@H](O)CC(=O)O)c1-c1ccc(F)cc1` [CERIVASTATIN] as the molecule, how does the IC50 read?
Its IC50 is 10 nM.

Which IC50 does the source give for `CC(C)c1nc(-c2ccc(F)cc2)c(-c2cc(Cl)cc(Cl)c2)n1/C=C/[C@@H](O)C[C@@H](O)CC(=O)O` here?
The IC50 was 7.66 nM.

For `CC(C)c1cc(-c2ccc(F)cc2)c(-c2ccc(F)cc2)n1/C=C/[C@@H](O)C[C@@H](O)CC(=O)O` (stereo in doubt; 29), which IC50 is on record?
Its IC50 is 6.98 nM.

Which IC50 does the source give for `CCc1cc(-c2c(-c3ccc(F)cc3)nc(C(C)C)n2/C=C/[C@@H](O)C[C@@H](O)CC(=O)O)cc(CC)c1F` here?
Its IC50 is 7 nM.

With `CC(C)c1cc(-c2ccccn2)c(-c2ccc(F)cc2)n1/C=C/[C@@H](O)C[C@@H](O)CC(=O)O` as the molecule, how does the IC50 read?
Its IC50 is 8.7 nM.

With `CN(C)c1nc(-c2ccc(F)cc2)c(-c2ccc(F)cc2)n1/C=C/[C@@H](O)C[C@@H](O)CC(=O)O` as the molecule, how does the IC50 read?
The IC50 was 8.04 nM.

With `CC(C)n1c(/C=C/C(O)CC(O)CC(=O)O)c(-c2ccc(F)cc2)c2ccccc21` (stereo not drawn) [FLUVASTATIN] as the molecule, how does the IC50 read?
The IC50 was 28 nM.

For `CC(C)c1nc(N(C)S(C)(=O)=O)nc(-c2ccc(F)cc2)c1/C=C/[C@@H](O)C[C@@H](O)CC(=O)O` [ROSUVASTATIN], which IC50 is on record?
The IC50 was 5 nM.

Which IC50 does the source give for `CC(C)c1nc(-c2cccnc2)c(-c2ccc(F)cc2)n1/C=C/[C@@H](O)C[C@@H](O)CC(=O)O` here?
The IC50 was 9 nM.

`CC(C)c1cc(-c2ccc(F)cc2)c(-c2cccc(Br)c2)n1/C=C/[C@@H](O)C[C@@H](O)CC(=O)O` was tested. Which IC50 did it give?
Its IC50 is 7.16 nM.

How did the IC50 turn out when `O=C(O)C[C@H](O)C[C@H](O)/C=C/n1c(C(F)(F)F)nc(-c2ccc(F)cc2)c1-c1ccc(F)cc1` was run?
The IC50 was 7.89 nM.

With `CC(C)c1nc(-c2ccc(F)cc2)c(-c2cccc(Cl)c2)n1/C=C/[C@@H](O)C[C@@H](O)CC(=O)O` as the molecule, how does the IC50 read?
Its IC50 is 8.1 nM.

With `Cc1nc(-c2ccc(F)cc2)c(-c2ccc(F)cc2)n1/C=C/[C@@H](O)C[C@@H](O)CC(=O)O` as the molecule, how does the IC50 read?
Its IC50 is under 7 nM.

With `CC(C)c1cc(-c2ccc(F)cc2)c(-c2cccc(Cl)c2)n1/C=C/[C@@H](O)C[C@@H](O)CC(=O)O` as the molecule, how does the IC50 read?
The IC50 was 7.15 nM.

How did the IC50 turn out when `CC(C)c1nc(-c2ccc(F)cc2)c(-c2ccc(F)cc2)n1/C=C/[C@H](O)C[C@H](O)CC(=O)O` was run?
The IC50 was 6.15 nM.

For `CC(C)c1c(-c2ccc(F)cc2)nc(-c2ccc(F)cc2)n1/C=C/[C@@H](O)C[C@@H](O)CC(=O)O`, which IC50 is on record?
Its IC50 is 9 nM.

For `Cc1cc(-c2nc(C(C)C)n(/C=C/[C@@H](O)C[C@@H](O)CC(=O)O)c2-c2ccc(F)cc2)cc(C)c1Cl`, which IC50 is on record?
The IC50 was 8.7 nM.

`CNc1cccc(-c2nc(C(C)C)n(/C=C/[C@@H](O)C[C@@H](O)CC(=O)O)c2-c2ccc(F)cc2)c1` was tested. Which IC50 did it give?
The IC50 was 8.52 nM.

`CC(C)c1c(Br)c(-c2ccc(F)cc2)c(-c2ccc(F)cc2)n1/C=C/[C@@H](O)C[C@@H](O)CC(=O)O` was tested. Which IC50 did it give?
Its IC50 is 9.52 nM.

Which IC50 does the source give for `CC(C)c1cc(-c2ccc(F)cc2)c(-c2ccccc2)n1/C=C/[C@@H](O)C[C@@H](O)CC(=O)O` here?
Its IC50 is 7.6 nM.

Which IC50 does the source give for `CC(C)c1nc(-c2cccc(S(C)(=O)=O)c2)c(-c2ccc(F)cc2)n1/C=C/[C@@H](O)C[C@@H](O)CC(=O)O` here?
Its IC50 is 8.7 nM.

For `CC(C)c1nc(-c2ccc(F)cc2)c(-c2ccc(F)cc2)n1/C=C/[C@@H](O)C[C@@H](O)CC(=O)O`, which IC50 is on record?
Its IC50 is 9 nM.

`CC(C)c1nc(-c2ccc(F)cc2)c(-c2ccc(F)cc2)n1/C=C/[C@H](O)C[C@@H](O)CC(=O)O` was tested. Which IC50 did it give?
Its IC50 is 5.7 nM.

For `Cc1cc(F)ccc1-c1c(-c2ccc(F)cc2)nc(C(C)C)n1/C=C/[C@@H](O)C[C@@H](O)CC(=O)O`, which IC50 is on record?
The IC50 was 8.4 nM.

How did the IC50 turn out when `CC(C)c1cc(-c2cccc(Br)c2)c(-c2ccc(F)cc2)n1/C=C/[C@@H](O)C[C@@H](O)CC(=O)O` was run?
Its IC50 is 9.3 nM.

Which IC50 does the source give for `CC(C)c1cc(-c2ccc(F)cc2)c(-c2ccc(F)cc2)n1/C=C/[C@@H](O)C[C@@H](O)CC(=O)O` (stereo in doubt; 19) here?
Its IC50 is 8.7 nM.

With `CC(C)c1cc(-c2cccc(Cl)c2)c(-c2ccc(F)cc2)n1/C=C/[C@@H](O)C[C@@H](O)CC(=O)O` as the molecule, how does the IC50 read?
The IC50 was 8.7 nM.

Which IC50 does the source give for `Cc1cc(C)cc(-c2c(-c3ccc(F)cc3)nc(C(C)C)n2/C=C/[C@@H](O)C[C@@H](O)CC(=O)O)c1` here?
Its IC50 is 7.25 nM.

Which IC50 does the source give for `CC[C@H](C)C(=O)O[C@H]1CCC=C2C=C[C@H](C)[C@H](CC[C@@H]3C[C@@H](O)CC(=O)O3)[C@H]21` [MEVASTATIN] here?
Its IC50 is 23 nM.
